Laboratory results: PubChem BioAssay AID248 (DTP/NCI, 2004)
Where “and” joins values, the source holds several entries; their conditions need not be identical. Identical values can stand only once. Toxic doses and inconclusive results are not listed. Cut-off read from the data, not from the text of the source: active = T/C of 150% or more; inactive = T/C below 125%.

Test system: L1210 leukemia ip in BDF1 mice, survival T/C
Test: NCI In Vivo Anticancer Drug Screen. Data for tumor model L1210 Leukemia (intraperitoneal) in B6D2F1 (BDF1) mice
Details: endpoint: mean survival time, higher = longer survival
How it was run: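 Transplantable tumor model; survival measured in treated vs vehicle control mice. Value = treated/control.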

[1] = dose: 50.0 mg/kg/injection, schedule: Q01DX001 (ip), vehicle: saline
[2] = dose: 100.0 mg/kg/injection, schedule: Q01DX001 (ip), vehicle: saline
[3] = dose: 200.0 mg/kg/injection, schedule: Q01DX001 (ip), vehicle: saline
[4] = dose: 400.0 mg/kg/injection, schedule: Q01DX001 (ip), vehicle: saline
[5] = dose: 3.12 mg/kg/injection, schedule: Q01DX009 (ip), vehicle: Klucel (hydroxypropylcellulose) (HPC)
[6] = dose: 6.25 mg/kg/injection, schedule: Q01DX009 (ip), vehicle: Klucel (hydroxypropylcellulose) (HPC)
[7] = dose: 12.5 mg/kg/injection, schedule: Q01DX009 (ip), vehicle: Klucel (hydroxypropylcellulose) (HPC)
[8] = dose: 100.0 mg/kg/injection, schedule: Q01DX001 (ip), vehicle: other
[9] = dose: 200.0 mg/kg/injection, schedule: Q01DX001 (ip), vehicle: other
[10] = dose: 400.0 mg/kg/injection, schedule: Q01DX001 (ip), vehicle: other
[11] = dose: 100.0 mg/kg/injection, schedule: Q04DX003 (ip), vehicle: saline
[12] = dose: 200.0 mg/kg/injection, schedule: Q04DX003 (ip), vehicle: saline
[13] = dose: 400.0 mg/kg/injection, schedule: Q04DX003 (ip), vehicle: saline
[14] = dose: 100.0 mg/kg/injection, schedule: Q04DX003 (ip), vehicle: Klucel (hydroxypropylcellulose) (HPC)
[15] = dose: 100.0 mg/kg/injection, schedule: Q01DX009 (ip), vehicle: Klucel (hydroxypropylcellulose) (HPC)
[16] = dose: 400.0 mg/kg/injection, schedule: Q01DX009 (ip), vehicle: Klucel (hydroxypropylcellulose) (HPC)
[17] = dose: 25.0 mg/kg/injection, schedule: Q04DX003 (ip), vehicle: Klucel (hydroxypropylcellulose) (HPC)
[18] = dose: 50.0 mg/kg/injection, schedule: Q04DX003 (ip), vehicle: Klucel (hydroxypropylcellulose) (HPC)
[19] = dose: 25.0 mg/kg/injection, schedule: Q04DX003 (ip), vehicle: saline with Tween-80
[20] = dose: 50.0 mg/kg/injection, schedule: Q04DX003 (ip), vehicle: saline with Tween-80
[21] = dose: 50.0 mg/kg/injection, schedule: Q01DX009 (ip), vehicle: Klucel (hydroxypropylcellulose) (HPC)

Measured: T/C

ICCC(c1ccccc1)(c1ccccc1)c1ccccc1
inactive: [1] 108 % of control | [2] 96 % of control | [3] 96 % of control | [4] 96 % of control

C=CC[n+]1ccccc1/C=C/c1ccc(OC)c(OC)c1
inactive: [5] 106 % of control | dose: 3.12 mg/kg/injection, schedule: Q04DX003 (ip), vehicle: Klucel (hydroxypropylcellulose) (HPC) 105 % of control | [6] 106 % of control | dose: 6.25 mg/kg/injection, schedule: Q04DX003 (ip), vehicle: Klucel (hydroxypropylcellulose) (HPC) 100 % of control | [7] 98 % of control | dose: 12.5 mg/kg/injection, schedule: Q04DX003 (ip), vehicle: Klucel (hydroxypropylcellulose) (HPC) 94 % of control and 100 % of control

COc1cc(C)c(C(=O)c2ccccc2NS(=O)(=O)c2ccc(C)cc2)cc1OC
inactive: dose: 50.0 mg/kg/injection, schedule: Q01DX001 (ip), vehicle: other 98 % of control | [8] 95 % of control | [9] 92 % of control | [10] 104 % of control

O=C(c1ccc(Cl)c(Cl)c1)n1c2ccccc2c2ccccc21
inactive: [11] 102 % of control | [12] 100 % of control | [13] 100 % of control

Cc1cccc(-n2cnc3c(=O)[nH]c(N)nc32)c1
inactive: [14] 95 % of control | dose: 200.0 mg/kg/injection, schedule: Q04DX003 (ip), vehicle: Klucel (hydroxypropylcellulose) (HPC) 95 % of control | dose: 400.0 mg/kg/injection, schedule: Q04DX003 (ip), vehicle: Klucel (hydroxypropylcellulose) (HPC) 93 % of control

CC(C)NC(=O)C1CC2c3cccc4[nH]c(Br)c(c34)CC2N(C)C1 (stereo unspecified)
inactive: dose: 5.0 mg/kg/injection, schedule: Q04DX003 (ip), vehicle: saline with Tween-80 94 % of control | dose: 10.0 mg/kg/injection, schedule: Q04DX003 (ip), vehicle: saline with Tween-80 93 % of control | dose: 20.0 mg/kg/injection, schedule: Q04DX003 (ip), vehicle: saline with Tween-80 88 % of control

C[N+]1(CCO)CC[N+](C)(CCO)CC1 (stereo unspecified)
inactive: dose: 100.0 mg/kg/injection, schedule: Q04DX002 (ip), vehicle: saline 90 % of control | dose: 200.0 mg/kg/injection, schedule: Q04DX002 (ip), vehicle: saline 104 % of control | dose: 400.0 mg/kg/injection, schedule: Q04DX002 (ip), vehicle: saline 101 % of control

COC(=O)C1C(O)CCC2CN3CCc4c([nH]c5ccccc45)C3CC21 (stereo unspecified)
inactive: [1] 102 % of control | dose: 75.0 mg/kg/injection, schedule: Q01DX Z (ip), vehicle: carboxymethylcellulose (CMC) 92 % of control | [2] 91 % of control | dose: 150.0 mg/kg/injection, schedule: Q01DX Z (ip), vehicle: carboxymethylcellulose (CMC) 100 % of control

COC(=O)CCNc1c(OC)ccc2ccccc12
inactive: [15] 101 % of control | [16] 98 % of control

C=C1C2CCC3(C)C(c4ccoc4)OC(=O)CC13OC1CC(=O)C(C)(C)C(CC(=O)OC)C12C (stereo unspecified)
inactive: [2] 97 % of control | [3] 96 % of control | [4] 114 % of control

NCCN1CCc2ccccc2C1
inactive: dose: 6.25 mg/kg/injection, schedule: Q01DX009 (ip), vehicle: saline 93 % of control | dose: 12.5 mg/kg/injection, schedule: Q01DX009 (ip), vehicle: saline 106 % of control | dose: 25.0 mg/kg/injection, schedule: Q01DX009 (ip), vehicle: saline 102 % of control

C/C=C(\CC)C1(CCC)C(=O)NC(=O)N(C)C1=O (stereo unspecified)
inactive: dose: 75.0 mg/kg/injection, schedule: Q01DX001 (ip), vehicle: other 103 % of control | dose: 75.0 mg/kg/injection, schedule: Q01DX001 (ip), vehicle: saline 95 % of control | dose: 150.0 mg/kg/injection, schedule: Q01DX001 (ip), vehicle: other 103 % of control | dose: 150.0 mg/kg/injection, schedule: Q01DX001 (ip), vehicle: saline 106 % of control | dose: 300.0 mg/kg/injection, schedule: Q01DX001 (ip), vehicle: other 101 % of control | dose: 300.0 mg/kg/injection, schedule: Q01DX001 (ip), vehicle: saline 106 % of control

NC1CCC(CC2CCCC2)CC1 (stereo unspecified)
inactive: [17] 96 % of control | [18] 93 % of control | [14] 104 % of control and 90 % of control

CCOC(=O)C(=O)C1CCNC1=O (stereo unspecified)
inactive: dose: 12.5 mg/kg/injection, schedule: Q04DX003 (ip), vehicle: saline with Tween-80 92 % of control | [19] 95 % of control | [20] 97 % of control

CN(C)CCOc1cccc(OCCN(C)C)n1
inactive: dose: 12.5 mg/kg/injection, schedule: Q01DX009 (ip), vehicle: saline with Tween-80 104 % of control | dose: 25.0 mg/kg/injection, schedule: Q01DX009 (ip), vehicle: saline with Tween-80 103 % of control | [19] 96 % of control | dose: 50.0 mg/kg/injection, schedule: Q01DX009 (ip), vehicle: saline with Tween-80 103 % of control | [20] 96 % of control | dose: 100.0 mg/kg/injection, schedule: Q04DX003 (ip), vehicle: saline with Tween-80 100 % of control

CC(C)=NNC(=O)COCC(=O)NN=C(C)C
inactive: [15] 97 % of control | dose: 200.0 mg/kg/injection, schedule: Q01DX009 (ip), vehicle: Klucel (hydroxypropylcellulose) (HPC) 112 % of control | [16] 109 % of control

C/C=C(/C)c1ccccc1
inactive: dose: 100.0 mg/kg/injection, schedule: Q01DX001 (ip), vehicle: carboxymethylcellulose (CMC) 95 % of control | dose: 200.0 mg/kg/injection, schedule: Q01DX001 (ip), vehicle: carboxymethylcellulose (CMC) 95 % of control | dose: 400.0 mg/kg/injection, schedule: Q01DX001 (ip), vehicle: carboxymethylcellulose (CMC) 95 % of control

CC(C)NC(=O)c1ccc(CNN(C)C)cc1
inactive: dose: 25.0 mg/kg/injection, schedule: Q04DX003 (ip), vehicle: saline 114 % of control | dose: 50.0 mg/kg/injection, schedule: Q04DX003 (ip), vehicle: saline 104 % of control | [11] 112 % of control | [12] 104 % of control | [13] 111 % of control

OCCOCc1ccccc1
inactive: [11] 104 % of control | [12] 98 % of control | [13] 100 % of control

COc1ccc(OC)c2c(=O)cc(C(=O)O)[nH]c12
inactive: [1] 98 % of control | [2] 97 % of control | [3] 95 % of control

O=C(CC(c1ccccc1)N1CCN(c2ccccc2)CC1)c1ccc(F)cc1 (stereo unspecified)
inactive: [7] 88 % of control | dose: 25.0 mg/kg/injection, schedule: Q01DX009 (ip), vehicle: Klucel (hydroxypropylcellulose) (HPC) 93 % of control | [21] 93 % of control | dose: 200.0 mg/kg/injection, schedule: Q01DX009 (ip), vehicle: gum acacia 87 % of control | dose: 400.0 mg/kg/injection, schedule: Q01DX009 (ip), vehicle: gum acacia 89 % of control

COc1ccc(CCC(=O)O)cc1
inactive: dose: 50.0 mg/kg/injection, schedule: Q04DX003 (ip), vehicle: gum acacia 98 % of control | dose: 100.0 mg/kg/injection, schedule: Q04DX003 (ip), vehicle: gum acacia 98 % of control | dose: 200.0 mg/kg/injection, schedule: Q04DX003 (ip), vehicle: gum acacia 95 % of control

CN1CCC(=C2c3ccccc3C(O)c3ccccc32)CC1 (stereo unspecified)
inactive: [5] 98 % of control | [6] 96 % of control | [7] 93 % of control | [17] 98 % of control | [21] 93 % of control | [18] 98 % of control

CC1(C)C2CCC1(C)C(OCC(=O)O)C2 (stereo unspecified)
inactive: dose: 100.0 mg/kg/injection, schedule: Q04DX002 (ip), vehicle: Klucel (hydroxypropylcellulose) (HPC) 96 % of control | dose: 200.0 mg/kg/injection, schedule: Q04DX002 (ip), vehicle: Klucel (hydroxypropylcellulose) (HPC) 121 % of control | dose: 400.0 mg/kg/injection, schedule: Q04DX002 (ip), vehicle: Klucel (hydroxypropylcellulose) (HPC) 102 % of control

CC(C)CCC(=O)CCC1CCCCC1
inactive: [2] 92 % of control | [3] 92 % of control | [4] 94 % of control

Cc1ccc(N=Nc2cc(C(C)C)c(O)cc2C)cc1
inactive: [8] 97 % of control | [9] 97 % of control | [10] 95 % of control
